The record followed here is patent US20230285450A1 (priority 2020, published 2023).

Counter-ions that a name gives are not always drawn.

The subject of series [1] is bovine cornea (eye mucosa irritation). The text has this:
The BCOP assay is a test to evaluate an irritation index for the eye mucosa using opacity and permeability. […] An in vitro irritancy score (IVIS) may be calculated by measuring the opacity and permeability, and the IVIS value may be calculated by [Equation 3].
IVIS=Mean opacity unit[…] [Equation 3]

The test system of another series is cells. The experiment in a line: Annexin V/PI toxicity evaluation. Format: cell-based. The settings on record: spots in upper right end indicate dead cells.
The next series concerns S. typhimurium. As to the kind of experiment: Sterilization test of nitrogen oxide solutions without plasma. The class given is cell-based. Particulars: ionized nitrogen oxide solutions without plasma. The protocol:
(§1) In order to confirm a sterilization effect of nitrogen oxides without plasma, ionized NO, NO2 and NO3 solutions were prepared and then sterilization experiments of S. typhimurium, S. aureus and E. coli were tested.

A further series deals with S. aureus. Described as above. The class given is cell-based. The settings on record: ionized nitrogen oxide solutions without plasma. The protocol: as §1
A further series has as its system E. coli. The description is as above. Particulars: ionized nitrogen oxide solutions without plasma. The class given is cell-based. The protocol:
as §1

Series [2] concerns SKINETHIC™ human skin model. The experiment in a line: Skin irritation test. The settings on record: relative to negative control group (PBS). Format: cell-based. On the procedure:
In the skin irritation test, the absorbance was measured for a […]™ human skin model, and a cell viability value (%) was calculated using [Equation 4] to [Equation 6].
Cell viability (%) of negative control group=[absorbance of negative control group/absorbance of negative control group]×100 [Equation 4]
Cell viability (%) of positive control group=[absorbance of positive control group/absorbance of negative control group]×100 [Equation 5]

On to `CCO` [ethyl alcohol], for which the “corneal opacity (appearance)” value in series [1] is given as “completely opaque”. In addition, in series [1] (bovine), the “IVIS (in vitro irritancy score)” value was found to be 39.4 ± 3.6, the Opacity unit was found to be 19.9 ± 0.6 and the “Transmittance (Absorbance (OD490))” value turned out to be 1.300 ± 0.203.

Regarding `OO` [H2O2, hydrogen peroxide], in the series with cells, the “Annexin V/PI toxicity” value is listed as “many spots were present in the upper right end”.

Take `O=NO` [NO2]: the sterilization effect result in the series with S. typhimurium, in the series on S. aureus and in the series with E. coli was “no sterilization effect was observed” throughout.

With `O=[N+]([O-])O` [NO3], the sterilization effect entry in the series with S. typhimurium, with S. aureus and in the series with E. coli was “no sterilization effect was observed” each time.

In the case of `CN(C)CCCN1c2ccccc2Sc2ccc(Cl)cc21` [chlorpromazine hydrochloride], the phototoxicity conclusion entry in the series on BALB/3T3 clone A31 cells was “phototoxicity was shown”. In addition, in the series on BALB/3T3 clone A31 cells (mouse), the “mean photo effect (MPE)” value was found to be 0.418 and the “photo irritation factor (PIF)” value amounted to 18.882.

As for `CCCCCCCCCCCCOS(=O)(=O)[O-].[Na+]` [sodium dodecyl sulfate], the cell viability result in series [2] is “about 1.1%”.
